Results from paper PMC11960442, “In vitro activities of lipopeptides against fluconazole-resistant Candida auris” (Microbiology Spectrum, 2025).
In brackets after ≈: the same amount, converted by molar mass. Like-named read-outs stand apart in the source and are kept apart here. Non-standard residues stand in square brackets, D forms with d. Residues, ends and D or L forms follow the SMILES beside them. *: point of attachment. Myristoyl = CCCCCCCCCCCCCC(=O)*; Nle = CCCC[C@H](N)C(=O)O

Experiments:
[1] = system: fluconazole-resistant C. auris isolates; test: microbe, parasite or virus in culture; details: Candidozyma auris, EUCAST broth microdilution, RPMI 1640 with 2% glucose
[2] = system: C. auris isolates 728157, CAB-1, CAB-2; test: Time-kill experiments (CFU counts), peptides combined with fluconazole; type: cell-based, Candida auris; details: for interaction with fluconazole in time-kill: fluconazole 128 mg/L with 0.5X and 1X MIC of peptide, interpreted by White et al.; for log difference compared to single administration, time-kill: C. auris CAB-1
[3] = system: C. auris isolates 728157, CAB-1, CAB-2; test: Growth curves (OD450 nm every hour for 24 h); type: cell-based, Candida auris; details: for growth: growth curve 24 h
Description: Growth Curves. The action of the peptides was assessed by growth curve measuring OD450 nm every hour for 24 h using peptides at different concentrations (0.5X, 1X, 2X MIC). […] Untreated isolates were used as control. All experiments were replicated at least three times.

[4] = system: fluconazole-resistant C. auris isolates; details: for MIC: EUCAST broth microdilution, RPMI 1640 with 2% glucose; for MIC values: the six C. auris isolates
[5] = system: C. auris; test: Stability of compounds: MIC after pre-incubation of the peptides; type: cell-based, Candida auris; details: peptides previously incubated for 24 and 48 hours at 37°C; no changes in MIC values
Description: Determination of MICs. […] The media used for this assay was RPMI 1640 with 2% of glucose and the concentration of antifungal and peptides tested ranged from 128 to 0.25 mg/l.
Stability of compounds The peptides were incubated at 37°C for 24 and 48 hours. They were then used to perform MIC determination as previously described.

[6] = isolate 728157 (clade I, ERG11 K143R)
[7] = isolate CAB-1 (clade I, ERG11 Y132F)
[8] = isolate CAB-2 (clade I, ERG11 Y132F)
[9] = isolate CAB-3 (clade I, ERG11 Y132F)
[10] = isolate CAB-4 (clade I, ERG11 Y132F)
[11] = isolate CAB-5 (clade I, ERG11 Y132F)
[12] = fluconazole combined with 0.5X MIC of peptide, after 12 hours
[13] = C. auris CAB-2, fluconazole combined with 0.5X MIC of peptide, after 12 hours
[14] = C. auris 728157, all the concentrations (0.5X, 1X, 2X MIC)
[15] = C. auris 728157, peptide at 0.5X MIC
[16] = C. auris 728157, peptide at 1X and 2X MIC
[17] = C. auris CAB-1, peptide at 1X and 2X MIC
[18] = C. auris CAB-2, peptide at 1X MIC
[19] = C. auris CAB-2, peptide at 2X MIC

## C[C@@H]1[C@H](O)[C@@H](C)/C=C/C=C/C=C/C=C/C=C/C=C/C=C/[C@H](O[C@@H]2O[C@H](C)[C@@H](O)[C@H](N)[C@@H]2O)C[C@@H]2O[C@](O)(C[C@@H](O)C[C@@H](O)[C@H](O)CC[C@@H](O)C[C@@H](O)CC(=O)O[C@H]1C)C[C@H](O)[C@H]2C(=O)O [AMB, amphotericin]
[1]; [6]
  MIC: 0.5 mg/L (≈ 0.541 µM)
[1]; [7]
  MIC: 1 mg/L (≈ 1.08 µM)
[1]; [8]
  MIC: 1 mg/L (≈ 1.08 µM)
[1]; [9]
  MIC: 1 mg/L (≈ 1.08 µM)
[1]; [10]
  MIC: 1 mg/L (≈ 1.08 µM)
[1]; [11]
  MIC: 1 mg/L (≈ 1.08 µM)

## OC(Cn1cncn1)(Cn1cncn1)c1ccc(F)cc1F [FLU, fluconazole]
[1]; [6]
  MIC: > 128 mg/L
[1]; [7]
  MIC: 64 mg/L (≈ 209 µM)
[1]; [11]
  MIC: 64 mg/L (≈ 209 µM)

## CCCCCCCCCCCCCC(=O)N[C@@H](CCCC)C(=O)N[C@@H](CCCNC(=N)N)C(=O)N[C@@H](CCCNC(=N)N)C(N)=O [NeI, C14-NleRR-NH2] (Myristoyl-[Nle]-Arg-Arg-NH2)
[2]; C. auris 728157
  interaction with fluconazole in time-kill: synergistic effect
[2]; C. auris 728157, fluconazole (128 mg/L) in combination with 0.5X and 1X MIC of peptide, at 32 hours
  log difference, time-kill: 3.10 log
[2]; C. auris 728157, fluconazole (128 mg/L) in combination with 0.5X and 1X MIC of peptide, at 48 hours
  log difference, time-kill: 3.53 log
[2]; [12]
  log difference compared to single administration, time-kill: 2.19 log
[2]; [13]
  log difference, time-kill: 1.19 log
[3]; [14]
  hours of treatment after which P <0.05 compared to control (growth curve): 8 h
[3]; [15]
  delay of the start of growth compared to the control: 16 h
[3]; [16]
  growth: completely inhibited
[3]; C. auris CAB-1, 1X and 2X MIC concentrations
  hours of treatment after which P <0.05 compared to control (growth curve): 8 h
[3]; [17]
  growth: completely inhibited
[3]; C. auris CAB-2, 1X and 2X MIC concentrations
  hours of treatment after which P <0.05 compared to control (growth curve): 7 h
[3]; [18]
  delay of the start of growth compared to the control: 14 h
[3]; [19]
  growth: completely inhibited
[4]; [6]
  MIC: 8 mg/L (≈ 12.3 µM)
[4]; [7]
  MIC: 8 mg/L (≈ 12.3 µM)
[4]; [8]
  MIC: 8 mg/L (≈ 12.3 µM)
[4]; [9]
  MIC: 8 mg/L (≈ 12.3 µM)
[4]; [10]
  MIC: 8 mg/L (≈ 12.3 µM)
[4]; [11]
  MIC: 8 mg/L (≈ 12.3 µM)
[4]
  MIC values: 8 mg/L
[4]; 8 mg/L expressed in µM
  MIC values: 9 µM
[5]
  MIC after pre-incubation of the peptide (stability): 8 mg/L

## CCCCCCCCCCCCCC(=O)N[C@@H](Cc1c[nH]c2ccccc12)C(=O)N[C@@H](CCCNC(=N)N)C(=O)N[C@@H](CCCNC(=N)N)C(N)=O [WR, C14-WRR-NH2] (Myristoyl-Trp-Arg-Arg-NH2)
[2]; C. auris 728157
  interaction with fluconazole in time-kill: additive effect
[2]; [12]
  log difference compared to single administration, time-kill: 2.96 log
[2]; [13]
  log difference, time-kill: 1.69 log
[3]; [14]
  hours of treatment after which P <0.05 compared to control (growth curve): 9 h
[3]; [15]
  delay of the start of growth compared to the control: 22 h
[3]; [16]
  growth: completely inhibited
[3]; C. auris CAB-1, all the concentrations (0.5X, 1X, 2X MIC)
  hours of treatment after which P <0.05 compared to control (growth curve): 9 h
[3]; [17]
  growth: completely inhibited
[3]; C. auris CAB-2, all the concentrations (0.5X, 1X, 2X MIC)
  hours of treatment after which P <0.05 compared to control (growth curve): 8 h
[3]; [18]
  delay of the start of growth compared to the control: 16 h
[3]; [19]
  growth: completely inhibited
[3]; peptide at 0.5X MIC, ANOVA, P <0.05
  growth after 24 hours compared to the control: statistically significant reduction of growth
[4]; [6]
  MIC: 8 mg/L (≈ 11 µM)
[4]; [7]
  MIC: 8 mg/L (≈ 11 µM)
[4]; [8]
  MIC: 8 mg/L (≈ 11 µM)
[4]; [9]
  MIC: 8 mg/L (≈ 11 µM)
[4]; [10]
  MIC: 8 mg/L (≈ 11 µM)
[4]; [11]
  MIC: 8 mg/L (≈ 11 µM)
[4]
  MIC values: 8 mg/L
[4]; 8 mg/L expressed in µM
  MIC values: 8.4 µM
[5]
  MIC after pre-incubation of the peptide (stability): 8 mg/L

## anidulafungin [reference compound]
[4]; [6]
  MIC: 0.25 mg/L
[4]; [7]
  MIC: 0.5 mg/L
[4]; [8]
  MIC: 0.25 mg/L
[4]; [9]
  MIC: 0.25 mg/L
[4]; [10]
  MIC: 0.25 mg/L
[4]; [11]
  MIC: 0.25 mg/L
